Several values for one entry are separate records, joined by “and”; a condition that tells them apart may be missing. Equal values may be shown once. Read-outs that look alike come from different tables or passages of the source.
Assays:
[1] = system: erythroid progenitor cells (EPCs); assay: Fetal hemoglobin (HbF) ELISA in day 7 erythroid progenitor cells; type: cell-based, human; conditions: Homo sapiens, Erythroid progenitor cell, HbF ELISA, day 7 EPCs, 5 days; read-out: EPC ELISA (pEC50 category) (converted);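 note: for fetal hemoglobin induction normalized to vehicle-treated cells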
Procedure, shortened: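 CD34+-derived EPCs, 1,000 cells/well, rhEPO 3 U/mL; Compound A 22-pt series, […]; 5 d, 37° C, 5% CO2. Freeze-thaw lysis, anti-HbF capture + HRP anti-HbF, TMB, OD450. Normalized to DMSO wells.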

DNMT1 = DNMT1 (Homo sapiens, UniProt P26358); assay: DNMT1 biochemical activity, breaklight assay and/or SPA assay
[2] = binned activity in either the breaklight or the SPA assay
[3] = breaklight assay and/or SPA assay, repeated experimental runs
[4] = breaklight assay and/or SPA assay, repeated experimental runs, read-out: average pIC50 against DNMT1 (converted)
[5] = binned activity in either the breaklight or the SPA assay, read-out: DNMT1 BioChemical (pIC50 category) (converted)

Chain of DNMT1 (P26358 whole entry, looked up): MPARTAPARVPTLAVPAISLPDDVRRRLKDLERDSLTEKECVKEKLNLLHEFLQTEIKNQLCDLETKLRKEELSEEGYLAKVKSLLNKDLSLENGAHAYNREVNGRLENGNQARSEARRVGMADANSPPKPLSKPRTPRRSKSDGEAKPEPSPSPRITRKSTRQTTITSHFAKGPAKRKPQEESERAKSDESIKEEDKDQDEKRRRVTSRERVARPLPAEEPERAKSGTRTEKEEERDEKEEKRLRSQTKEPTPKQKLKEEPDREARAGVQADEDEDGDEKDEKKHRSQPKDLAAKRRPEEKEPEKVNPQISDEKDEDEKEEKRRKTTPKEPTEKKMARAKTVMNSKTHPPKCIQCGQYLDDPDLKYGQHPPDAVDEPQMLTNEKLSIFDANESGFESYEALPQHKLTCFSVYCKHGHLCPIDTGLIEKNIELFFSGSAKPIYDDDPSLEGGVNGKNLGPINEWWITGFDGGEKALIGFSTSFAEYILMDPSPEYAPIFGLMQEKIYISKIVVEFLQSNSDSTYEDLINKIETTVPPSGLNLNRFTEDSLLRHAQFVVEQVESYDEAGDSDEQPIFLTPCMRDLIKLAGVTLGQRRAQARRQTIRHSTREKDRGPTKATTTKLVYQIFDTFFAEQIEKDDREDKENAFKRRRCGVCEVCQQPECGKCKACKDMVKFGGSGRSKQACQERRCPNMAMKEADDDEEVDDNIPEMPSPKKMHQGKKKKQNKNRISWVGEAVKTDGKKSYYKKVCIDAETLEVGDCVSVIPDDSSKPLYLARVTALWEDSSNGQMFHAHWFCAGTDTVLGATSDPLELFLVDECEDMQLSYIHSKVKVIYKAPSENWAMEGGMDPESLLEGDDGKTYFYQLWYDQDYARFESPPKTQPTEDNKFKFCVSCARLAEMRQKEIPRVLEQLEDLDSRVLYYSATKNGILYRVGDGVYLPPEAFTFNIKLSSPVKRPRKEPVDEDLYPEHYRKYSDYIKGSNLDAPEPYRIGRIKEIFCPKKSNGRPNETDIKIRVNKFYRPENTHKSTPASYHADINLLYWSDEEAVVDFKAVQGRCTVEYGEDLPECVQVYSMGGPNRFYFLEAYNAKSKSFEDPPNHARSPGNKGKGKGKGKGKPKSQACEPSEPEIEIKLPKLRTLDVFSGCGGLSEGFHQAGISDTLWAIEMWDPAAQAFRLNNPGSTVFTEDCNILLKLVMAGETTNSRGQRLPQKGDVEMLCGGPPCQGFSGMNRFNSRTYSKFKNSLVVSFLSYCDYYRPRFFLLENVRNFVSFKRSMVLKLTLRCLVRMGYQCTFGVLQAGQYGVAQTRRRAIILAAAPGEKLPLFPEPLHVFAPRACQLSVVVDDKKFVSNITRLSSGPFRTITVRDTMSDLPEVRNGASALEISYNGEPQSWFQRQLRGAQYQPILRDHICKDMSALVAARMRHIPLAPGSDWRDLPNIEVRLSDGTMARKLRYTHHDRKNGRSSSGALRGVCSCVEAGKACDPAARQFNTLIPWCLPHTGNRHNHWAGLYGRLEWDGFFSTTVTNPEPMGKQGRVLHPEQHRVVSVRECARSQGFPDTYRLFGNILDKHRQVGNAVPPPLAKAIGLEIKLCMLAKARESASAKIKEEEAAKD

Structure (SMILES)	EC50 [1] [µM]	DNMT1 BioChemical (pIC50 category) (DNMT1; [2])	average pIC50 against DNMT1 (DNMT1; [3])	IC50 (DNMT1; [4])	IC50 (DNMT1; DNMT1 BioChemical (pIC50 category), binned activity in either the breaklight or the SPA assay) [µM]	IC50 (DNMT1; [5]) [µM]
CCc1c(C#N)c(SC(C(N)=O)c2ccc(C(N)=O)cc2)nc(N2CCCN(C)CC2)c1C#N (centres unmarked) [Example 368, 4-(2-Amino-1-((3,5-dicyano-4-ethyl-6-(4-methyl-1,4-diazepan-1-yl)pyridin-2-yl)thio)-2-oxoethyl)benzamide]	> 31.6	D (Category D: ≥6.5)	–	–	–	–
CCc1c(C#N)c(SC(C(N)=O)c2ccccc2)nc(N2CCC(NCC(C)(C)C)C(F)C2)c1C#N (centres unmarked) [Example 409, 2-((3,5-dicyano-4-ethyl-6-(3-fluoro-4-A(neopentylamino)piperidin-1-yl)pyridin-2-yl)thio)-2-phenylacetamide]	< 0.316	D (Category D: ≥6.5)	> 6.5	0.158 µM	–	–
CCc1c(C#N)c(SC(C(N)=O)c2ccccc2)nc(N(C)C2CC3CCC(C2)N3)c1C#N (centres unmarked) [Example 62, 2-((6-(8-azabicyclo[3.2.1]octan-3-yl(methyl)amino)-3,5-dicyano-4-ethylpyridin-2-yl)thio)-2-phenylacetamide]	0.316 to 1	–	–	–	0.316 to 1	–
CCc1c(C#N)c(SC(C(N)=O)c2ccccc2)nc(N2CCNC(C)CC2)c1C#N (centres unmarked) [Example 67, 2-{[3,5-dicyano-4-ethyl-6-(5-methyl-1,4-diazepan-1-yl)pyridin-2-yl]sulfanyl}-2-phenylacetamide]	< 0.316	D (Category D: ≥6.5)	–	–	–	–
CCc1c(C#N)c(SC(C(N)=O)c2ccccc2)nc(N(C)CC(=O)N2CCC2)c1C#N (centres unmarked) [Example 631, 2-((6-((2-(azetidin-1-yl)-2-oxoethyl)(methyl)amino)-3,5-dicyano-4-ethylpyridin-2-yl)thio)-2-phenylacetamide]	< 0.316	D (Category D: ≥6.5)	–	–	–	–
CCc1c(C#N)c(SC(C(N)=O)c2ccccc2)nc(N2CCC(N)C(F)(F)C2)c1C#N (centres unmarked) [Example 382, 2-((6-(4-Amino-3,3-difluoropiperidin-1-yl)-3,5-dicyano-4-ethylpyridin-2-yl)thio)-2-phenylacetamide]	< 0.316	D (Category D: ≥6.5)	–	–	–	–
CCc1c(C#N)c(SCc2ccc(N(C)S(C)(=O)=O)cc2)nc(N2CCC(NCC(C)(C)C)CC2)c1C#N [Example 569, N-(4-(((3,5-dicyano-4-ethyl-6-(4-(neopentylamino)piperidin-1-yl)pyridin-2-yl)thio)methyl)phenyl)-N-methylmethanesulfonamide]	< 0.316	D (Category D: ≥6.5)	–	–	–	–
CCc1c(C#N)c(SC(C(N)=O)c2ccccc2)nc(N2CCC(NC)CC2)c1C#N (centres unmarked) [Example 547, 2-((3,5-dicyano-4-ethyl-6-(4-(methylamino)piperidin-1-yl)pyridin-2-yl)thio)-2-phenylacetamide]	< 0.316	D (Category D: ≥6.5)	–	–	–	–
CCc1c(C#N)c(SC(C(N)=O)c2ccccc2)nc(N2CCC(NC)C(F)C2)c1C#N (centres unmarked) [Example 507, 2((3,5-dicyano-4-ethyl-6-(3-fluoro-4-(methylamino)piperidin-1-yl)pyridin-2-yl)thio)-2-phenylacetamide]	< 0.316	D (Category D: ≥6.5)	–	–	–	–
CCc1c(C#N)c(SC(C(N)=O)c2ccccc2)nc(N2CCC(OP(=O)(O)O)CC2)c1C#N (centres unmarked) [Example 155, 1-(6-((2-Amino-2-oxo-1-phenylethyl)thio)-3,5-dicyano-4-ethylpyridin-2-yl)piperidin-4-yl dihydrogen phosphate]	> 31.6	–	–	–	–	1 to 31.6
CCc1c(C#N)c(SC(C(N)=O)c2ccccc2)nc(N2CC(ONC(=N)N)C2)c1C#N (centres unmarked) [Example 676, 2-((3,5-dicyano-4-ethyl-6-(3-(guanidinooxy)azetidin-1-yl)pyridin-2-yl)thio)-2-phenylacetamide]	1 to 31.6	D (Category D: ≥6.5)	–	–	–	–
CCc1c(C#N)c(SC(C(N)=O)c2ccccc2)nc(N2CCC(NC(=O)C(C)(C)N)CC2)c1C#N (centres unmarked) [Example 148]	< 0.316	D (Category D: ≥6.5)	> 6.5	–	–	–
CCc1c(C#N)c(SC(C(N)=O)c2ccccc2)nc(N2CC[C@H](ONC(=N)N)C2)c1C#N (stereo partly drawn) [Example 625, 2-((3,5-dicyano-4-ethyl-6-((S)-3-(guanidinooxy)pyrrolidin-1-yl)pyridin-2-yl)thio)-2-phenylacetamide]	< 0.316	D (Category D: ≥6.5)	–	–	–	–
CCc1c(C#N)c(SC(C(N)=O)c2ccccc2)nc(N2CCC[C@@H](N)C2)c1C#N (stereo partly drawn) [Example 691, 2-((6-((R)-3-aminopiperidin-1-yl)-3,5-dicyano-4-ethylpyridin-2-yl)thio)-2-phenylacetamide]	1 to 31.6	D (Category D: ≥6.5)	–	–	–	–
CCc1c(C#N)c(SC(C(N)=O)c2ccccc2)nc(N2CCN(C(C)(C)CO)CC2)c1C#N (centres unmarked) [Example 189]	0.316 to 1	–	–	–	–	0.316 to 1
CCc1c(C#N)c(SC(C(N)=O)c2ccccc2)nc(N2CCOC(CN(CC)CC)C2)c1C#N (centres unmarked) [Example 559, 2-((3,5-dicyano-6-(2-((diethylamino)methyl)morpholino)-4-ethylpyridin-2-yl)thio)-2-phenylacetamide]	< 0.316	D (Category D: ≥6.5)	–	–	–	–
CCc1c(C#N)c(SC(C(N)=O)c2ccsc2)nc(N2CCNCC2)c1C#N (centres unmarked) [Example 263, 2-(3,5-Dicyano-4-ethyl-6-(piperazin-1-yl)pyridin-2-ylthio)-2-(thiophen-3-yl)acetamide]	0.316 to 1	–	–	–	–	0.316 to 1
CCc1c(C#N)c(SCc2ccc(N(C)S(=O)(=O)C(F)F)cc2)nc(N2CCCN(C)CC2)c1C#N [Example 602, N-(4-(((3,5-dicyano-4-ethyl-6-(4-methyl-1,4-diazepan-1-yl)pyridin-2-yl)thio)methyl)phenyl)-1,1-difluoro-N-methylmethanesulfonamide]	< 0.316	–	–	0.316 to 1 µM and 0.501 µM	–	0.316 to 1
CCc1c(C#N)c(SCc2ccc(N(C)S(C)(=O)=O)cc2)nc(N2CCC(NC3CC3)CC2)c1C#N [Example 573, N-(4-(((3,5-dicyano-6-(4-(cyclopropylamino)piperidin-1-yl)-4-ethylpyridin-2-yl)thio)methyl)phenyl)-N-methylmethanesulfonamide]	< 0.316	D (Category D: ≥6.5)	–	–	–	–
CCc1c(C#N)c(SCc2ccc(CNC(C)=O)cc2)nc(N(C)CCOC(=O)[C@@H](N)C(C)C)c1C#N [Example 267]	1 to 31.6	–	–	–	–	1 to 31.6
CCc1c(C#N)c(SCc2cnn(CC(N)=O)c2)nc(N(C)C)c1C#N [Example 285, 2-(4-(((3,5-Dicyano-6-(dimethylamino)-4-ethylpyridin-2-yl)thio)methyl)-1H-pyrazol-1-yl)acetamide]	1 to 31.6	–	–	–	–	0.316 to 1
CCc1c(C#N)c(SC(C(N)=O)c2ccccc2)nc(N(C)CCN2CCC[C@H]2CO)c1C#N (stereo partly drawn) [Example 475, 2-((3,5-dicyano-4-ethyl-6-((2-((S)-2-(hydroxymethyl)pyrrolidin-1-yl)ethyl)(methyl)amino)pyridin-2-yl)thio)-2-phenylacetamide]	< 0.316	D (Category D: ≥6.5)	–	–	–	–
CCc1c(C#N)c(SC(C(N)=O)c2ccccc2)nc(N2CCC(OCCO)CC2)c1C#N (centres unmarked) [Example 224, 2-((3,5-Dicyano-4-ethyl-6-(4-(2-hydroxyethoxy)piperidin-1-yl)pyridin-2-yl)thio)-2-phenylacetamide]	0.316 to 1	–	–	–	–	0.316 to 1
CCc1c(C#N)c(SC(C(N)=O)c2ccccc2)nc(N(C)CCN2[C@H](C)CC[C@@H]2C)c1C#N (stereo partly drawn) [Example 476, 2-(3,5-dicyano-6-((2-((2S,5R)-2,5-dimethylpyrrolidin-1-yl)ethyl)(methyl)amino)-4-ethylpyridin-2-ylthio)-2-phenylacetamide]	< 0.316	D (Category D: ≥6.5)	–	–	–	–
CCc1c(C#N)c(SC(C(N)=O)c2ccccc2)nc(N2CCC(NCC(=O)O)CC2)c1C#N (centres unmarked) [Example 497, 2-((1-(6-((2-amino-2-oxo-1-phenylethyl)thio)-3,5-dicyano-4-ethylpyridin-2-yl)piperidin-4-yl)amino)acetic acid]	1 to 31.6	D (Category D: ≥6.5)	–	–	–	–
CCc1c(C#N)c(SC(C(N)=O)c2ccccc2)nc(N(C)CCC(N)=O)c1C#N (centres unmarked) [Example 230, 3-((6-(2-Amino-2-oxo-1-phenylethylthio)-3,5-dicyano-4-ethylpyridin-2-yl)(methyl)amino)propanamide]	1 to 31.6	–	–	–	–	0.316 to 1
CN(CC(=O)N(CCO)CCO)c1nc(SC(C(N)=O)c2ccccc2)c(C#N)c(C2CC2)c1C#N (centres unmarked) [Example 641, 2-((6-((2-amino-2-oxo-1-phenylethyl)thio)-3,5-dicyano-4-cyclopropylpyridin-2-yl)(methyl)amino)-N,N-bis(2-hydroxyethyl)acetamide]	1 to 31.6	D (Category D: ≥6.5)	–	–	–	–
CCOc1c(C#N)c(C)nc(SC(C(N)=O)c2ccccc2)c1C#N (centres unmarked) [Example 342, 2-((3,5-Dicyano-4-ethoxy-6-methylpyridin-2-yl)thio)-2-phenylacetamide]	> 31.6	–	–	–	–	0.316 to 1
CCc1c(C#N)c(S[C@@H](C(N)=O)c2ccccc2)nc(N2CC[C@@H](N)[C@@H](F)C2)c1C#N [Example 506, (R)-2-((6-((3S,4R)-4-amino-3-fluoropiperidin-1-yl)-3,5-dicyano-4-ethylpyridin-2-yl)thio)-2-phenylacetamide 2,2,2-trifluoroacetate]	< 0.316	D (Category D: ≥6.5)	–	–	–	–

Source: US10975056B2 (GlaxoSmithKline Intellectual Property Development Limited, priority 2016, dated 2021)
